Test results as given in patent US12509421B2, “Preparation and application of deuterated 4-phenyl-4-piperidinols” (priority 2022, dated 2025).
Counter-ions that a name gives are not always drawn.

Key:
[1] = Metabolic stability in liver microsomes, dog; settings: for half-life at 2 μM / microsomal CLint at 2 μM: dog, microsomes, pH 7.4
Method: (§1) The solution B is slowly dropped into solution A, and the pH is adjusted to 7.40±0.05.
(§2) • Control drug: 4 μL Verapamil solution (10 mM) is added with 96 μL DMSO and diluted to 400 μM; • Compound to be tested: 4 μL compound to be tested (10 mM) is added with 96 μL normal saline and diluted to 400 μM.
(§3) The microsomes are stored in the refrigerator at −80° C., thawed at room temperature after being taken out, and mixed gently.
(§4) […] PBS (100 mm, pH=7.4) solution is added to the negative sample. The solution is put into water bath at 37° C. and pre-incubated for 10 minutes; • B) After incubation, 2 μL reference drug or compound to be tested (400 μM) are added into each well to start the reaction.

ICR mice = experiment: Evaluation of side effects of constipation (defecation time, number, weight); type: in vivo; settings: for Number of defecating animals: 10 mice per group; for Number of defecating animals / Fecal weight: within 5 hours; for Defecation time: first black stool; for Defecation time / water content of feces / Fecal weight: x ± SE; for Defecation time / water content of feces: only animals that defecate within 5 hours
Method: Constipation side effect is a common side effect of opioid drugs. This patent evaluates the possibility of constipation side effect by the influence of the compound on defecation time, defecation quantity and defecation weight of experimental animals.
ICR mice are randomly divided into 6 groups with 10 mice in each group after adaptive feeding. Fasting for 16-24 h, without stopping drinking, the blank control group is given solvent, during which the normal diet is: (1) the blank control group; (2) Compound diphenoxylate (7.5 mg/kg) group; (3) Low dose (1 mg/kg) group; (4) High dose (5 mg/kg) group of the compound to be tested.
After administration for 30 minutes, the mice in each group are given Chinese ink by gavage. After administration, the mice are kept in a single cage, and the excretion time of the first black stool is recorded. The number and weight (wet weight) of defecation particles in each mouse within 5 hours after administration are recorded. each group of mice are placed in an IVC cage with clean filter paper. The feces of each mouse are collected, put into a sterile 1.5 ml EP tube and stored in an ice box. During the collection, the number of defecation particles of each mouse is recorded, and the wet weight is weighed. After the collected feces are dried, the dry weight of the feces is recorded. Drying conditions: put fresh feces in an oven and bake at 100° C. for 5-10 minutes until the dry weight of feces is constant. The following formula is used to calculate the water content of feces, and the water content of feces (%)=(wet feces mass−dry feces mass)/wet feces mass×100%.
The data required for measurement and observation in this experiment are recorded in the corresponding table. All data are statistically processed by Microsoft Excel, and expressed as “mean standard error”. The data of each group are statistically analyzed by SPSS software package.

[2] = Metabolic stability in liver microsomes, human; settings: for half-life at 2 μM / microsomal CLint at 2 μM: human, microsomes, pH 7.4
Method: as §1, §2, §3, §4

CYP 3A4 = CYP 3A4 (Homo sapiens, UniProt P08684); experiment: biochemical; settings: CYP 3A4 IC50, human liver microsomes
Chain of CYP 3A4 (P08684 whole entry): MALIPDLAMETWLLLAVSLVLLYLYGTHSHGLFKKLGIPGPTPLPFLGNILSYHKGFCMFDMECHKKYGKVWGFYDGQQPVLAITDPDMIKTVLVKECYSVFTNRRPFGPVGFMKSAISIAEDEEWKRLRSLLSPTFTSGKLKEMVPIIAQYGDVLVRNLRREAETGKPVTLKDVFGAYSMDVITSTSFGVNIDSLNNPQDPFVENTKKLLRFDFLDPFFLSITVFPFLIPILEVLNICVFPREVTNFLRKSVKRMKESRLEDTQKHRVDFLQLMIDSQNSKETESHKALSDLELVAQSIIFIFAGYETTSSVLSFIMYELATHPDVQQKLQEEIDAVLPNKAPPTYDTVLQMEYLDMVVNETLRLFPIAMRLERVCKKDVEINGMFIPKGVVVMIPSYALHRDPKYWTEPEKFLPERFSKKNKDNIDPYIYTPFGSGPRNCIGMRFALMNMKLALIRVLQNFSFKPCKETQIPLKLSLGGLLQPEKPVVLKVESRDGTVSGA

μOR = biological target: T1, μOR (Homo sapiens, UniProt P35372); experiment: Opioid receptor competitive binding test, μOR; settings: compound at 10 μM; [3H]-labeled ligand; CHO cell membranes; ± SD of three measurements
T1 construct: expressed in transfected cells; host or cells: CHO cells
T1 sequence (P35372 whole entry): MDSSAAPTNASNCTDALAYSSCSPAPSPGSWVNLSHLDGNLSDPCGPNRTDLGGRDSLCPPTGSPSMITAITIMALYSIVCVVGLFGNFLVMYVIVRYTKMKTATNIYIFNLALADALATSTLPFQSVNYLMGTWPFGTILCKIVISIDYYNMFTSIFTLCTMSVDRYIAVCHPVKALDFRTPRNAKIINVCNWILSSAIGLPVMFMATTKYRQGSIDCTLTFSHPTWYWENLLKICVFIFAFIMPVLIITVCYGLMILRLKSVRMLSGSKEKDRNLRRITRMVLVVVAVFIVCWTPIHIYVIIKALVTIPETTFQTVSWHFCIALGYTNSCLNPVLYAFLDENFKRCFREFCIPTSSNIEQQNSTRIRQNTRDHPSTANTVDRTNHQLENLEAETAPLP
Method: CHO cells expressing p opioid receptor, δ opioid receptor and K opioid receptor are cultured in a 10 cm^2 Petri dish (F-12 medium+10% newborn bovine serum) for several days, and the culture solution is sucked after the cells grew to the bottom of the dish. 3 ml PBS/EDTA solution (0.1M NaCl, 0.01M NaH2PO4, 0.04% EDTA) is added for digestion for 3-5 minutes. The cells are blown with a straw to get fall off completely, collected in a 40 ml centrifuge tube, centrifuged at 5000 rpm for 5 minutes, and removed with the supernatant. The centrifuge tube is added with ice-cold homogenate (50 mM HEPES PH 7.4, 3 mM MgCl2, 1 mM EGTA). The solution and precipitate are transferred to homogenizer for homogenization; Then the homogenate is transferred into a centrifuge tube, centrifuged at 18000 rpm for 15 minutes, and centrifuged twice; the obtained precipitate is added with an appropriate amount of buffer solution of 50 mM Tris-HCl and pH 7.4, homogenized and sub-packaged in centrifuge tubes. The product is stored in a refrigerator at −70° C. for later use.
20-30 μg expressed membrane receptor protein and [3H]-labeled ligand (1-2 nM) are added to the total binding tube, added with 1 μM of corresponding ligand to the corresponding nonspecific binding tube. Various screened opioid ligand drugs (see the drug compounds in Table 1 below) are added to the sample tube with 100 μL final volume. The sample is incubated at 30° C. for 30 minutes, and the reaction is terminated in ice water. The glass fiber filter paper gF/C (whatman) is used for negative pressure filtration on Millipore sample collector. The sample is eluted with 4 ml 50 mm tris-HCl (pH 7.4) for three times, dried with the filter paper, put in 0.5 ml Eppendorf tube and added with 0.5 ml lipophilic scintillation liquid. The radioactive intensity is measured with PERKIN ELMER PRI-CARB 2910 liquid scintillation counter with calculation of the inhibition rate. The experiment is repeated for more than three times, with three compound tubes in each group. Inhibition rate(or binding rate)=(total binding rate dpm−sample tube dpm)/(total binding tube dpm-nonspecific binding tube dpm)×100%
IC50 is calculated with Prism 5.0 software. The Ki value is calculated according to the following formula: Ki=IC50/(1^+[L]/Kd), wherein [L] is the concentration of the added labeled ligand, and Kd is the equilibrium dissociation parameter of the labeled ligand.

CYP 1A2 = biological target: T2, CYP 1A2 (Homo sapiens, UniProt P05177); experiment: Inhibition of cytochrome P450 enzyme in human liver microsomes, CYP 1A2
T2 sequence (P05177 1-516): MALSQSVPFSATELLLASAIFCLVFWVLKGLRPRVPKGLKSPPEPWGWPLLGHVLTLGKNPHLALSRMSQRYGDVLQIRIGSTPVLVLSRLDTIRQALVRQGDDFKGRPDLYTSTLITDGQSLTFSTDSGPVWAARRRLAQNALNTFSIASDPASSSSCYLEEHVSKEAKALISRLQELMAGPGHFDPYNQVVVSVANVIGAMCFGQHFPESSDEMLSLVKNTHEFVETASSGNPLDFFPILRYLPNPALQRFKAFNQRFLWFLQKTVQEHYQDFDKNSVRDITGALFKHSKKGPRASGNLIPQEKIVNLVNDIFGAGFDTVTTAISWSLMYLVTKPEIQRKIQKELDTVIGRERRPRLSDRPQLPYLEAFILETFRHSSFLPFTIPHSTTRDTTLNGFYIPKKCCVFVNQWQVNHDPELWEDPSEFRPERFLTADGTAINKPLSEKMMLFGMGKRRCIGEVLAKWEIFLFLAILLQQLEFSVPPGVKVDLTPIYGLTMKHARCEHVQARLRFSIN

[3] = Dog liver microsomes 0.5 mg/mL, NADPH 1 mM, compound 2 μM
[4] = Human liver microsomes 0.5 mg/mL, NADPH 1 mM, compound 2 μM

Row | Compound | half-life at 2 μM [1] | microsomal CLint at 2 μM [1] | Number of defecating animals (ICR mice; 1 mg/kg) | Defecation time (ICR mice; 1 mg/kg) | water content of feces (ICR mice; 1 mg/kg) | Fecal weight (ICR mice; 1 mg/kg) | Number of defecating animals (ICR mice; 5 mg/kg) | Defecation time (ICR mice; 5 mg/kg) | water content of feces (ICR mice; 5 mg/kg) | Fecal weight (ICR mice; 5 mg/kg) | half-life at 2 μM [2] | microsomal CLint at 2 μM [2] | IC50 (CYP 3A4; substrate midazolam) | IC50 (CYP 3A4; substrate testosterone) | μOR binding rate (μOR) | IC50 (CYP 1A2) | further results
1 | [2H]C([2H])([2H])Oc1cccc([C@]2(O)CCN(C(=O)Cc3cc(F)c(F)cc3F)C[C@H]2CN(C([2H])([2H])[2H])C([2H])([2H])[2H])c1 [II-11hydrochloride] | 5.99 min | 703 µL/min/mg | 8 | 190.3 ± 12.7 min | 43.5 ± 2.8% | 0.3402 ± 0.0828 g | 2 | 265.9 ± 13.1 min | 38.2 ± 9.5% | 0.0496 ± 0.0067 g | 6.18 min | 711 µL/min/mg | > 50 µM | > 50 µM | 24.3 ± 1.9% | > 50 µM | 
2 | [2H]C([2H])([2H])Oc1cccc([C@]2(O)CCN(S(=O)(=O)Cc3ccccc3)C[C@H]2CN(C([2H])([2H])[2H])C([2H])([2H])[2H])c1 [II-5hydrochloride] | 6.03 min | 720 µL/min/mg | 8 | 160.1 ± 9.9 min | 42.7 ± 1.9% | 0.3389 ± 0.0902 g | 2 | 202.8 ± 4.2 min | 37.6 ± 8.6% | 0.0478 ± 0.0061 g | 6.25 min | 704 µL/min/mg | > 50 µM | > 50 µM | 27.1 ± 1.2% | > 50 µM | 
3 | [2H]C([2H])([2H])N(C[C@@H]1CN(C(=O)Cc2cc(F)c(F)cc2F)CC[C@@]1(O)c1cccc(OC)c1)C([2H])([2H])[2H] [II-9hydrochloride] | 5.19 min | 659 µL/min/mg | 8 | 182.6 ± 10.2 min | 43.2 ± 2.5% | 0.3399 ± 0.0983 g | 2 | 242.9 ± 11.9 min | 37.9 ± 8.9% | 0.0489 ± 0.0073 g | 5.32 min | 673 µL/min/mg | 48 µM | 47 µM | 27.1 ± 1.1% | > 50 µM | 
4 | [2H]C([2H])([2H])N(C)C[C@@H]1CN(S(=O)(=O)Cc2ccccc2)CC[C@@]1(O)c1cccc(OC)c1 [II-1hydrochloride] | 5.01 min | 605 µL/min/mg | 9 | 105.9 ± 10.5 min | 43.5 ± 2.6% | 0.3682 ± 0.0816 g | 3 | 202.4 ± 6.2 min | 38.2 ± 8.6% | 0.0586 ± 0.0065 g | 5.22 min | 663 µL/min/mg | 42.9 µM | 41.9 µM | 27.9 ± 1.3% | > 50 µM | 
5 | COc1cccc([C@]2(O)CCN(S(=O)(=O)Cc3ccccc3)C[C@H]2CN(C)C)c1.Cl [Example 20 of CN201911076305.X, reference compound] |  |  | 9 | 281 ± 4 min | 19.6 ± 4.5% | 0.1243 ± 0.0153 g |  |  | 0% | 0 g |  |  |  |  | 27.52 ± 1.54% |  | CLint [1, 3]: 839.02 μL/min/mg protein; t1/2 [1, 3]: 1.65 min; Number of defecating animals (ICR mice; 5 mg/kg, hydrochloride): 0; Number of defecating animals (ICR mice; 5 mg/kg, listed as Example 20 in patent CN201911076305.X, hydrochloride): did not defecate; constipation in experimental animals (ICR mice; comparative experiments of the inventor): can cause constipation in experimental animals in a dose-dependent manner; CLint [2, 4]: 950.42 μL/min/mg protein; t1/2 [2, 4]: 1.46 min
6 | [2H]C([2H])([2H])N(C[C@@H]1CN(S(=O)(=O)Cc2ccccc2)CC[C@@]1(O)c1cccc(OC)c1)C([2H])([2H])[2H] [II-3hydrochloride] | 5.26 min | 663 µL/min/mg | 8 | 152.8 ± 4.1 min | 43.0 ± 2.1% | 0.3396 ± 0.0965 g | 2 | 243.6 ± 10.5 min | 37.8 ± 8.9% | 0.0482 ± 0.0053 g | 5.46 min | 685 µL/min/mg | 46.8 µM | 43.6 µM | 28.2 ± 1.5% | > 50 µM | 
